{"source": "paper PMC9551036", "about": "“A selective and orally bioavailable VHL-recruiting PROTAC achieves SMARCA2 degradation in vivo” (Nature Communications, 2022)", "key": {"Plasma protein binding": {"experiment": "Plasma protein binding", "assay_type": "in vitro ADME", "method": "Binding of compound to plasma proteins was determined by equilibrium dialysis of 3 µmol/L compound in plasma (or plasma dilutions in PBS) against PBS through an 8 kDa molecular-weight cut-off cellulose membrane (RED device, Thermo Fisher) at 37 °C for 5 h. After incubation, aliquots from donor and acceptor compartments were precipitated and the concentrations in the supernatants were determined by quantitative LC-MS/MS. Calibration and quality control samples were prepared using blank plasma and internal standard. The fraction unbound was calculated as ratio of the compound concentration in the acceptor compartment to the concentration in the donor compartment."}, "SMARCA2": {"molecular_target": "SMARCA2 (Homo sapiens, UniProt P51531)", "sequence (P51531 whole entry)": "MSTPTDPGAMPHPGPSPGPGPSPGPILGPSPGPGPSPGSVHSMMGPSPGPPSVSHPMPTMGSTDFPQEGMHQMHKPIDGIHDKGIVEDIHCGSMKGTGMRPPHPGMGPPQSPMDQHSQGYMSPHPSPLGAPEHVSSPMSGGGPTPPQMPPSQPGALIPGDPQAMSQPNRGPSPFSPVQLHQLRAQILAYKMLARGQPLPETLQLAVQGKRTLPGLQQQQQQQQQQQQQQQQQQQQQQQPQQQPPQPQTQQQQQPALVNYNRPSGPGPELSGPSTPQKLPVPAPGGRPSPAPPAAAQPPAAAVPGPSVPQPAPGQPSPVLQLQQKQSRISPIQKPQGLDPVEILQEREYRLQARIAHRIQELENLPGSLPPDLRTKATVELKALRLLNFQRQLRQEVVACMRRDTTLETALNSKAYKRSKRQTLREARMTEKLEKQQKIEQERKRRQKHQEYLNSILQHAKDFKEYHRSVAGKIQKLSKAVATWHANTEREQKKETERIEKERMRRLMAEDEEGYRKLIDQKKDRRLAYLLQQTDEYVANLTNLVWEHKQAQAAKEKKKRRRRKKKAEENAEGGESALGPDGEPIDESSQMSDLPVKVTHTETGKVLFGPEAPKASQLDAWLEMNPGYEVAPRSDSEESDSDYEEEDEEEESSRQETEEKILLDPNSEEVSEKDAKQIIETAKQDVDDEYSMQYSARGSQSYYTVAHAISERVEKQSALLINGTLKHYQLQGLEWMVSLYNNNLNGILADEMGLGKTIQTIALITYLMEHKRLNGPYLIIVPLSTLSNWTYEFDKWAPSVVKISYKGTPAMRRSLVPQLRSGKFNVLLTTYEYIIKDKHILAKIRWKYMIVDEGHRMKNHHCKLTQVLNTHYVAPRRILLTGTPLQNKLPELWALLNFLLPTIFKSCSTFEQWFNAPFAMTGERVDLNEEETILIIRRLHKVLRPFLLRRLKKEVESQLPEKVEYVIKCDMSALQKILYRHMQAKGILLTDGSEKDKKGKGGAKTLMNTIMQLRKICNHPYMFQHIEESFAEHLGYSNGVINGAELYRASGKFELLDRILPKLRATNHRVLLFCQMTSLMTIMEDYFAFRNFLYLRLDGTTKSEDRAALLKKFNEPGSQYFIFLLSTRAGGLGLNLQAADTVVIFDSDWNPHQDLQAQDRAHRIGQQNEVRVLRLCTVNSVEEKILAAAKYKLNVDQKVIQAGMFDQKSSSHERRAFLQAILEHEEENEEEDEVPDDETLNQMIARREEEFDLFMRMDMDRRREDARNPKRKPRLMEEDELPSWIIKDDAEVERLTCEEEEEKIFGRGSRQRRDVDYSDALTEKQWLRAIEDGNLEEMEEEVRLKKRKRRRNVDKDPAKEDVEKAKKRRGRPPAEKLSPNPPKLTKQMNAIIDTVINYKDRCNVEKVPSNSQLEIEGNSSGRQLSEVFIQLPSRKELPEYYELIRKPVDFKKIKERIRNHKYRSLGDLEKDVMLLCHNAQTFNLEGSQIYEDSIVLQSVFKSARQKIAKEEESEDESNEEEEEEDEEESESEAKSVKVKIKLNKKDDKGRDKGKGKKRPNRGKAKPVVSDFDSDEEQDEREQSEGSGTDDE", "experiment": "SMARCA2 capillary electrophoresis protein assay in other cell lines (A549, NCI-H1568, HCT116, LU99, HCC-364, HCT-15, HCC4006, SK-N-AS)", "assay_type": "cell-based", "design": "endogenous in cells; host or cells: RKO, NCI-H1568, A549, HCT116, LU99, HCC-364, HCT-15, HCC4006, SK-N-AS", "method": "130,000–200,000 cells were seeded in 24-well plates and incubated until settled down or overnight. Compounds were dissolved in DMSO and added to cells in indicated concentrations using a digital dispenser following an optional media change. Cells were incubated for 4 or 18 h as indicated. For SMARCA2/4 half-life determination, 150,000 or 200,000 cells were seeded in 24-well plates. The next day, 50 µg/ml cycloheximide (Sigma) was added and cells were incubated for 1–24 h. For SMARCA2/4 re-synthesis measurements, 200,000 cells were seeded in 24-well plates. The next day, 100 nM compound 6 was added for 4 h to degrade SMARCA2/4, and a sample was taken as baseline for normalisation. To allow re-synthesis, a VHL binder (compound 32, 25 or 50 µM) was then added for 3 or 24 h. Medium was removed, cells were washed with PBS and lysed with 80 µl Lysis Buffer (MSD Tris Lysis Buffer (#R60TX-2) + Halt Inhibitor Cocktail (100x) + Benzonase 0.5 µL/ml). Samples were frozen at −80 °C and thawed at room temperature before use. Samples were transferred to a V-bottom plate and insoluble debris was pelleted by centrifugation for 5 min at maximum speed. The supernatant was transferred to a fresh plate. Master Mix and Ladder were prepared according to manufacturer’s instructions for 12–230 kDa Wes Separation Module, 8 × 25 capillary cartridges, Protein Simple #SM-W004 with Anti-Rabbit Detection Module for Wes, Peggy Sue or Sally Sue, Protein Simple #DM-001. 4.8 µl lysate were mixed with 1.2 µl Master Mix to achieve a protein concentration of ~0.5 µg/µl. Antibodies were diluted in Antibody Diluent II (SMARCA2 Sigma #HPA029981 RRID:AB_10602406 1:25–100, SMARCA4 Cell Signalling #49360 clone D1Q7F RRID:AB_2728743 1:15–120 or Abcam #ab110641 clone EPNCIR111A RRID:AB_10861578 1:60, GAPDH Abcam #ab9485 RRID:AB_307275 1:250). Wes plates were prepared and run according to manufacturer’s instructions. Proteins were quantified with accompanying Compass Software. SMARCA2/4 protein levels were normalised to GAPDH. […] Where applicable, curves were fitted using a 4-parametric logistic model."}, "P-gp": {"tested_on": "P-gp", "experiment": "Bidirectional permeability measurement in Caco-2 cells", "assay_type": "in vitro ADME", "conditions": "human, Caco-2, pH 7.4, with zosuquidar 5 µM, Modified Caco-2, b to a, + PGPi (Zosuquidar); read-out: Modified Caco-2 Pba + PGPi (Zosuquidar)", "summary_of_the_method": "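Caco-2 monolayers grown 14–21 days, preincubated 24 h with medium containing 1 µM compound; bidirectional transport sampled up to 2 h, quantified by LC-MS/MS, ± 5 µM zosuquidar (P-gp inhibitor). Papp,AB and Papp,BA from receiver amount, donor C0, area and time; efflux ratio = Papp,BA/Papp,AB (duplicate means). TEER checked per plate.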"}, "[1]": {"conditions": "NCI-H1568 (4 h), mean ± SD, read-out: SMARCA2 DC50"}, "[2]": {"conditions": "NCI-H1568, 4h, individual replicates, read-out: NCI-H1568 (4h) SMARCA2 DC50"}, "[3]": {"conditions": "bovine, 10% calf plasma dilution in PBS, 10% calf, fraction unbound, read-out: PPB fu 10% Calf"}, "[4]": {"conditions": "bovine, 10% plasma (plasma dilution in PBS), 10% calf, read-out: PPB fu 10% Calf"}}, "note": "Where “and” joins values, the source holds several entries; their conditions need not be identical. Identical values can stand only once. Like-named read-outs stand apart in the source and are kept apart here."}
{"smiles": "Cc1ncsc1-c1ccc([C@H](COC(C)(C)CN2CCC(c3ccc4c(c3)n(C3CCCC3)c3nc(=O)c5c(Br)cccc5n43)CC2)NC(=O)[C@@H]2C[C@@H](O)CN2C(=O)[C@@H](NC(=O)C2(F)CC2)C(C)(C)C)cc1", "note": "[compound 28]", "values": [{"measurement": "PPB fu 10% Calf", "setting": "Plasma protein binding; 10% calf", "result": "1.857% and 2.316%"}, {"measurement": "PPB fu 10% Calf", "setting": "Plasma protein binding; 10% calf, fraction unbound", "result": "2 ± 0.3", "unit": "%"}, {"measurement": "PPB fu 10% Human", "setting": "Plasma protein binding; 10% human", "result": "<0.224", "unit": "%"}, {"measurement": "PPB fu 10% Mouse", "setting": "Plasma protein binding", "result": "<0.219", "unit": "%"}, {"measurement": "PPB fu 10% Rat", "setting": "Plasma protein binding; 10% rat", "result": "<0.231", "unit": "%"}, {"measurement": "PPB fu Human", "setting": "Plasma protein binding; human, fraction unbound", "result": "<0.2", "unit": "%"}, {"measurement": "PPB fu Mouse", "setting": "Plasma protein binding; mouse, fraction unbound", "result": "<0.2", "unit": "%"}, {"measurement": "PPB fu Rat", "setting": "Plasma protein binding; rat, fraction unbound", "result": "<0.2", "unit": "%"}, {"measurement": "SMARCA2 Dmax", "setting": "SMARCA2; NCI-H1568 (4 h), mean ± SD", "result": "94 ± 6", "unit": "%"}, {"measurement": "DC50", "setting": "SMARCA2; [1]", "result": "18 ± 13", "unit": "nM"}, {"measurement": "DC50", "setting": "SMARCA2; [2]", "result": "6.62 nM and 28.2 nM and 30.1 nM"}]}
{"smiles": "Cc1ncsc1-c1ccc(CNC(=O)[C@@H]2C[C@@H](O)CN2C(=O)[C@@H](NC(=O)C2(F)CC2)C(C)(C)C)c(OCCN2CCC(c3ccc4c(c3)n(C3CCCC3)c3nc(=O)c5c(Br)cccc5n43)CC2)c1", "note": "[compound 20]", "values": [{"measurement": "DC50", "setting": "SMARCA2; [1]", "result": "> 2500", "unit": "nM"}, {"measurement": "DC50", "setting": "SMARCA2; [2]", "result": "> 2500", "unit": "nM"}]}
{"smiles": "Cc1ncsc1-c1ccc([C@H](CCC(C)(C)CCN2CCC(c3ccc4c(c3)n(C3CCCC3)c3nc(=O)c5c(Br)cccc5n43)CC2)NC(=O)[C@@H]2C[C@@H](O)CN2C(=O)[C@@H](NC(=O)C2(F)CC2)C(C)(C)C)cc1", "note": "[compound 30]", "values": [{"measurement": "PPB fu 10% Calf", "setting": "Plasma protein binding; 10% calf", "result": "<0.071", "unit": "%"}, {"measurement": "PPB fu 10% Calf", "setting": "Plasma protein binding; 10% calf, fraction unbound", "result": "<0.07", "unit": "%"}]}
{"smiles": "Cc1ncsc1-c1ccc([C@H](CCCCCN2CCC(c3ccc4c(c3)n(C3CCCC3)c3nc(=O)c5c(Br)cccc5n43)CC2)NC(=O)[C@@H]2C[C@@H](O)CN2C(=O)[C@@H](NC(=O)C2(F)CC2)C(C)(C)C)cc1", "note": "[compound 11]", "values": [{"measurement": "PPB fu 10% Calf", "setting": "Plasma protein binding; 10% calf", "result": 0.136, "unit": "%"}, {"measurement": "PPB fu 10% Human", "setting": "Plasma protein binding; 10% human", "result": "< 0.043% and < 0.038%"}, {"measurement": "PPB fu 10% Mouse", "setting": "Plasma protein binding", "result": "< 0.038% and < 0.228% and 1.281%"}, {"measurement": "PPB fu 10% Rat", "setting": "Plasma protein binding; 10% rat", "result": "< 0.044% and < 0.048%"}, {"measurement": "fraction unbound at 5 h, 3 µmol/L", "setting": "Plasma protein binding; [3]", "result": 0.0014}, {"measurement": "fraction unbound at 5 h, 3 µmol/L", "setting": "Plasma protein binding; [4]", "result": "< 0.00092"}, {"measurement": "fraction unbound at 5 h, 3 µmol/L", "setting": "Plasma protein binding; human, 10% plasma (plasma dilution in PBS), 10% human, read-out: PPB fu 10% Human", "result": "< 0.00049"}, {"measurement": "fraction unbound at 5 h, 3 µmol/L", "setting": "Plasma protein binding; human, plasma, human, fraction unbound, read-out: PPB fu Human", "result": "< 0.0004"}, {"measurement": "fraction unbound at 5 h, 3 µmol/L", "setting": "Plasma protein binding; mouse, plasma, mouse, fraction unbound, read-out: PPB fu Mouse", "result": "< 0.0004"}, {"measurement": "fraction unbound at 5 h, 3 µmol/L", "setting": "Plasma protein binding; rat, 10% plasma (plasma dilution in PBS), 10% rat, read-out: PPB fu 10% Rat", "result": "< 0.00047"}, {"measurement": "fraction unbound at 5 h, 3 µmol/L", "setting": "Plasma protein binding; rat, plasma, rat, fraction unbound, read-out: PPB fu Rat", "result": "< 0.0004"}, {"measurement": "Papp B→A at 2 h, 1 µM", "setting": "P-gp", "result": 24, "unit": "×10⁻⁶ cm/s"}, {"measurement": "Dmax", "setting": "SMARCA2; NCI-H1568 (4 h), mean ± SD", "result": "90 ± 0.3", "unit": "%"}, {"measurement": "DC50", "setting": "SMARCA2; [1]", "result": "8 ± 4", "unit": "nM"}, {"measurement": "DC50", "setting": "SMARCA2; [2]", "result": "5.2 nM and 13 nM and 6.7 nM"}]}
{"smiles": "CN1CCC(c2ccc3c(c2)n(C2CCCC2)c2nc(=O)c4c(Br)cccc4n32)CC1", "note": "[compound 3]", "values": [{"measurement": "DC50", "setting": "SMARCA2; [1]", "result": "> 2500", "unit": "nM"}, {"measurement": "DC50", "setting": "SMARCA2; [2]", "result": "> 2500", "unit": "nM"}]}
{"smiles": "Cc1ncsc1-c1ccc([C@H](CC[C@@H](C)CCN2CCC(c3ccc4c(c3)n(C3CCCC3)c3nc(=O)c5c(Br)cccc5n43)CC2)NC(=O)[C@@H]2C[C@@H](O)CN2C(=O)[C@@H](NC(=O)C2(F)CC2)C(C)(C)C)cc1", "note": "[compound 29]", "values": [{"measurement": "PPB fu 10% Calf", "setting": "Plasma protein binding; 10% calf", "result": "<0.144", "unit": "%"}, {"measurement": "PPB fu 10% Calf", "setting": "Plasma protein binding; 10% calf, fraction unbound", "result": "<0.14", "unit": "%"}, {"measurement": "PPB fu 10% Human", "setting": "Plasma protein binding; 10% human", "result": "<0.052", "unit": "%"}, {"measurement": "PPB fu 10% Mouse", "setting": "Plasma protein binding", "result": "<0.335", "unit": "%"}, {"measurement": "PPB fu 10% Rat", "setting": "Plasma protein binding; 10% rat", "result": "<0.272", "unit": "%"}, {"measurement": "PPB fu Human", "setting": "Plasma protein binding; human, fraction unbound", "result": "<0.05", "unit": "%"}, {"measurement": "PPB fu Mouse", "setting": "Plasma protein binding; mouse, fraction unbound", "result": "<0.34", "unit": "%"}, {"measurement": "PPB fu Rat", "setting": "Plasma protein binding; rat, fraction unbound", "result": "<0.27", "unit": "%"}]}
{"smiles": "Cc1ncsc1-c1ccc([C@H](CCCCN2CCC(c3ccc4c(c3)n(C3CCCC3)c3nc(=O)c5c(Br)cccc5n43)CC2)NC(=O)[C@@H]2C[C@@H](O)CN2C(=O)[C@@H](NC(=O)C2(F)CC2)C(C)(C)C)cc1", "note": "[compound 25]", "values": [{"measurement": "PPB fu 10% Calf", "setting": "Plasma protein binding; 10% calf", "result": 0.731, "unit": "%"}, {"measurement": "PPB fu 10% Calf", "setting": "Plasma protein binding; 10% calf, fraction unbound", "result": 0.7, "unit": "%"}]}
{"smiles": "Cc1ncsc1-c1ccc([C@H](COC(C)CN2CCC(c3ccc4c(c3)n(C3CCCC3)c3nc(=O)c5c(Br)cccc5n43)CC2)NC(=O)[C@@H]2C[C@@H](O)CN2C(=O)[C@@H](NC(=O)C2(N(C)C)CC2)C(C)(C)C)cc1", "note": "(some centres unmarked) [compound 10]", "values": [{"measurement": "fraction unbound at 5 h, 3 µmol/L", "setting": "Plasma protein binding; [3]", "result": 0.05}, {"measurement": "fraction unbound at 5 h, 3 µmol/L", "setting": "Plasma protein binding; [4]", "result": 0.0548}]}
